Series [1] relates to P. falciparum FC27 lab lines. Kind of series: Ex vivo schizont maturation assay, lab line. Type of series: cell-based. The conditions noted are these: Plasmodium falciparum, read-out: P. falciparum FC27 lab lines IC50. Here is the method:
(§1) To assess comparative activity between P. falciparum and P. vivax strains compounds were tested in an ex vivo parasite assay using Plasmodium isolates from patients who visited clinics in Timika (Papua, Indonesia). Parasites in this region are resistant to standard anti-malarials such as chloroquine. P. vivax can not be cultivated in vitro so the ex vivo assay is the only method to evaluate drug sensitivity. Patients with parasitemia between 2000 and 80,000 ul^−1 were eligible for recruitment into the study. Blood was collected by venipuncture, host white blood cells were removed and packed infected red blood cells were used for the ex vivo studies. Drug susceptibility was measured as previously described (Russell et al., 2008, Antimicrobial Agents Chemother., 52, 1040-1045; Marfurt et al., 2011, Antimicrobial Agents Chemother., 55, 961-966; Marfurt et al., 2011, Antimicrobial Agents Chemother., 55, 4461-4464). Briefly two hundred μl of a 2% hematocrit blood mixture, consisting of RPMI 1640 medium plus 10% AB+ human serum (P. falciparum) or McCoy's 5A medium plus 20% AB+ human serum (P. vivax) was added to each well of pre-dosed drug plates containing serial 2-fold dilutions of the anti-malarial compound. A candle jar was used to mature parasites at 37° C. for 35-56 hrs. […] Thick blood films made from each well were stained with 5% Giemsa for 30 min and examined microscopically. The number of schizonts per 200 asexual stage parasites was determined and normalized to the control well. Data were analyzed by nonlinear regression (WinNonLn 4.1) to determine the IC50 using the inhibitory sigmoid Emax model.
(§2) Drug plate quality was assured by running schizont maturation assays (two independent experiments) with the chloroquine-resistant strain K1 and the chloroquine-sensitive strain FC27. For microscopy slide reading QC, two randomly selected drugs per isolate were read by a second microscopist. […] If necessary, discrepant results were resolved by a third reading by an expert microscopist.

Series [2] has as its system P. vivax clinical isolates. Kind of series: Ex vivo schizont maturation assay, clinical isolates. Type of series: cell-based. The conditions noted are these: Plasmodium vivax, read-out: P. vivax clinical isolates IC50. The protocol:
as §1, §2

Series [3] concerns P. falciparum Pf3D70087/N9. Kind of series: SCID mouse P. falciparum in vivo efficacy model. Details: species or system P. falciparum in NOD-scid IL-2Rγnull (NSG) mice. The conditions noted are these: oral, starting day 3 post infection, NSG mice engrafted with human erythrocytes. The protocol: Briefly, NOD-scid IL-2Rγnull (NSG) mice (Jackson Laboratory, USA) (23-36 g) engrafted with human erythrocytes as described were infected with 20×10^6 P. falciparum Pf3D70087/N9) generated in GlaxoSmithkline Tres Cantos (Spain) by intravenous injection. Compounds were administered orally in vehicle (saline solution for Chloroquine; 0.5% w/v sodium carboxymethylcellulose, 0.5% v/v benzyl alcohol, 0.4% v/v Tween 80 in water for triazolopyrimidine analogs). Compounds were administered at target doses ranging from 0.5 to 75 mg/kg (free base equivalent) starting on day 3 post infection. Formulation concentrations were measured to obtain the actual doses administered. Parasitemia was monitored by flow cytometry and the effective dose (ED90) was calculated as described in Jimenez-Diaz, 2009, Antimicrobial agents and chemotherapy, 53, 4533-4536.

Series [4] deals with P. falciparum clinical isolates. Kind of series: Ex vivo schizont maturation assay, clinical isolates. Type of series: cell-based. The conditions noted are these: Plasmodium falciparum, read-out: P. falciparum clinical isolates IC50. The protocol: as §1, §2
The test system of a further series is P. falciparum 3D7. The experiment in a line: P. falciparum 3D7 growth inhibition assay (SYBR green). In kind it is cell-based. The conditions noted are these: Plasmodium falciparum, 72 h incubation, 50% growth inhibition, read-out: Pf 3D7 EC50. The protocol:
The ability of triazolopyrimidine derivatives according to the invention to kill P. falciparum parasites and/or to inhibit its proliferation is assayed through their ability to inhibit Plasmodium falciparum growth. The growth inhibition assay is as follows: P. falciparum 3D7 cells were grown in Gibco-Invitrogen RPMI-1640 supplemented with 2% (w/v) red blood cells (RBCs) and either 20% human type A+ plasma (Desjardins et al., 1979, Antimicrob Agents Chemother. 16, 710-718) or with Gibco-Invitrogen 0.5% Albumax I (Coteron et al., 2011, J. Med. Chem., 54, 5540-5561). Serial dilutions of compound stocks were prepared in 100% DMSO at 200× the final concentration, followed by generation of 20× stocks in media. Cell growth was monitored by the SYBR green method as described (Deng, et al., 2014. J. Med. Chem., 57, 5381-539). Parasites (0.19 ml of 0.5% parasitemia, 0.5% HCT) were plated into 96-well microtiter plates containing 10 μL compound or DMSO control (final DMSO concentration of 0.5%). Non-parasitized RBCs (0.5% HCT) were used as a control to determine background fluorescence. After 72 h of incubation parasitized RBCs were quantitated by the SYBR Green method. 2× SYBR Green I solution (20 μL) in 1× PBS was mixed with 20 μL parasites in 96-well plates, incubated for 20 min, and after which 160 μL of 1× PBS was added. Fluorescence was detected using a BD Biosciences Acurri C6 flow cytometer and events recorded within gates that encompassed all asexual growth stages of the P. falciparum intraerythrocytic life cycle. A minimum 50,000 total events were recorded per well. Background events determined from non-parasitized RBC controls were subtracted from final counts.

Series [5] in a line: Aqueous kinetic solubility by nephelometry. The conditions noted are these: pH 6.5 phosphate buffer, 1% DMSO; for solubility kinetic: aqueous buffer, kinetic from dmso stock, read-out: Kinetic Solubility pH6.5. Type of series: physicochemical. Here is the method:
Aqueous solubility was estimated by nephelometry. Concentrated stock solutions were prepared in DMSO and diluted into either pH 6.5 phosphate buffer or 0.01 M HCl (approximately pH 2.0), with the final DMSO concentration being 1%. Samples were then analyzed by nephelometry to determine the solubility range as described previously (Bevan, et al., 2000, Anal. Chem., 72, 1781-1787).

A further series has as its target dog DHODH (Canis lupus familiaris, UniProt A0A8I3MWX2). Kind of series: Recombinant DHODH inhibition, DCIP dye-based assay. Type of series: biochemical. The protocol:
(§3) The compounds of the invention were also assessed for inhibitory activity against recombinant DHODH from the indicated species. Recombinant enzymes were produced and purified from E. coli as His6 fusion proteins and purified by Ni^+2-agarose chromatography as described.
(§4) Data were collected on a Synergy H1 hybrid plate reader in 96 well plate format at 28° C., using a final assay volume of 200 μl. Rate data (v) were converted to μmoles/min using the molar extinction coefficient for DCIP. Compounds were prepared in stock solutions of DMSO. An initial 100 mM stock was generated and this was used to prepare a 3 fold dilution series in DMSO. A 1:100 dilution of DMSO stock was made into assay buffer to generate the final concentration in the assay mix.
(§5) Assay Conditions: DHODH (ET=5-10 nM), substrates (0.2 mM L-dihydroorotate and 0.02 mM CoQD), DCIP (0.12 mM) and assay buffer (100 mM HEPES, pH 8.0, 150 mM NaCl, 10% Glycerol, 0.1%Triton) at 20° C. Concentration of compounds of the invention was varied in a 3-fold dilution series (0.01-100 uM). All data were collected in triplicate.
(§6) Fitting was performed in Graph Pad Prism to determine the IC50. Reported error represents the 95% confidence interval of the fit or the standard deviation of the mean.

A further series deals with human DHODH (Homo sapiens, UniProt Q02127). The experiment in a line: Recombinant DHODH inhibition, DCIP dye-based assay. In kind it is biochemical. The conditions noted are these: first value of cell, read-out: h/d/m/r DHODH (h). The protocol:
as §3, §4, §5, §6

The next series addresses rat DHODH (Rattus norvegicus, UniProt Q63707). Kind of series: Recombinant DHODH inhibition, DCIP dye-based assay. In kind it is biochemical. The conditions noted are these: fourth value of cell, read-out: h/d/m/r DHODH (r). The protocol:
as §3, §4, §5, §6

For a further series, the target named is mouse DHODH (Mus musculus, UniProt O35435). The experiment in a line: Recombinant DHODH inhibition, DCIP dye-based assay. In kind it is biochemical. The conditions noted are these: third value of cell, read-out: h/d/m/r DHODH (m). The protocol:
as §3, §4, §5, §6

In a further series the target is T1, pfDHODH (Plasmodium falciparum, UniProt Q08210).
T1 sequence (Q08210 24-569): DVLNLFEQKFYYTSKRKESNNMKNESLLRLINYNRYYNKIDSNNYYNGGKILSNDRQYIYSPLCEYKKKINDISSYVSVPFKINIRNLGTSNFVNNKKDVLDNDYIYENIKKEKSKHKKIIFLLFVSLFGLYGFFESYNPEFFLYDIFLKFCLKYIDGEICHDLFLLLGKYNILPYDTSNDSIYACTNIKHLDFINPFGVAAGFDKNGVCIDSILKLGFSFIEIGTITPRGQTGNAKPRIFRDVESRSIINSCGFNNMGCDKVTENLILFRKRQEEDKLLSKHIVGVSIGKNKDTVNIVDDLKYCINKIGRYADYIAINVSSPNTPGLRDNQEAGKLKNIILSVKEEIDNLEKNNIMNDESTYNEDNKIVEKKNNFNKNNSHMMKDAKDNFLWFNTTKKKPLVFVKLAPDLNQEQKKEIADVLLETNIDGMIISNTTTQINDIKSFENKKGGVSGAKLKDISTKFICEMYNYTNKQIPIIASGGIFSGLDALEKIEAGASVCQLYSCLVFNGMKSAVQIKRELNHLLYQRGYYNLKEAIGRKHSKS
Kind of series: biochemical. Here is the method: as §3, §4, §5, §6

Setting [6] is: dog DHODH, second value of cell, read-out: h/d/m/r DHODH (d).
[7] abbreviates: recombinant enzyme, DCIP assay, IC50, read-out: PfDHODH.
[8] abbreviates: ex vivo schizont maturation, 35-56 hrs, isolates from Timika (Papua, Indonesia).

≈ marks a conversion by molar mass, not a printed value. Like-named read-outs stand apart in the source and are kept apart here.

Chain of human DHODH (Q02127 whole entry): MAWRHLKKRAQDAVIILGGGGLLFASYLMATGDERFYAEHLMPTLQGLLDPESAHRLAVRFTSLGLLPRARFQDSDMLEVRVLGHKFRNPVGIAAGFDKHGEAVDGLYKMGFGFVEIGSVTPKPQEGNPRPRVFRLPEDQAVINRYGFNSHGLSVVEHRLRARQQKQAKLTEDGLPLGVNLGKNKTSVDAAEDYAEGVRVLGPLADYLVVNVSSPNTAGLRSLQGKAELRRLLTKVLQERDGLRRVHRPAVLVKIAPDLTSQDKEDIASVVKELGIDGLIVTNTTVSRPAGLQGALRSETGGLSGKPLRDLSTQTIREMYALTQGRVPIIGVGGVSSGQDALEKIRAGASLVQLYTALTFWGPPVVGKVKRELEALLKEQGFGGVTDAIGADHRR
Chain of rat DHODH (Q63707 whole entry): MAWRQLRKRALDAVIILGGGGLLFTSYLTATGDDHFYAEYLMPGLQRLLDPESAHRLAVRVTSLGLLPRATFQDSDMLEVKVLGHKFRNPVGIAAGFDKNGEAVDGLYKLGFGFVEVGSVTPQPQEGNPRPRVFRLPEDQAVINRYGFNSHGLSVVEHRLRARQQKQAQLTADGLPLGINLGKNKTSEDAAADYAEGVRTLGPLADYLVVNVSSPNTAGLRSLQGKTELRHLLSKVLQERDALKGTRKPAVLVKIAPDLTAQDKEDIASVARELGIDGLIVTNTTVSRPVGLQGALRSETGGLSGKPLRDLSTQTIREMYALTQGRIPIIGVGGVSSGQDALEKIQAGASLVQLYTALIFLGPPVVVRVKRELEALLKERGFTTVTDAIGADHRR
Chain of dog DHODH (A0A8I3MWX2 1-406): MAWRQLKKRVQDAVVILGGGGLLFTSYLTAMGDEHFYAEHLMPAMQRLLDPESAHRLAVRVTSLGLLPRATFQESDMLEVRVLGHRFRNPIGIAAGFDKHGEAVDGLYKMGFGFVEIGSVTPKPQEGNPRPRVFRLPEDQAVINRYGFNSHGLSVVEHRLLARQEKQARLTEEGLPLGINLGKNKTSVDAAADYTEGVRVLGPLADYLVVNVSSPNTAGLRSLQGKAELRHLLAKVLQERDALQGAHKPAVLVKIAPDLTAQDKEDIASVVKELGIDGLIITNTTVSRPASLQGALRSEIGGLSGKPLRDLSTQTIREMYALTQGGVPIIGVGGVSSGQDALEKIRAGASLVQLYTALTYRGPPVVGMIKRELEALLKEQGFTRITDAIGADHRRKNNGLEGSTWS
Chain of mouse DHODH (O35435 whole entry): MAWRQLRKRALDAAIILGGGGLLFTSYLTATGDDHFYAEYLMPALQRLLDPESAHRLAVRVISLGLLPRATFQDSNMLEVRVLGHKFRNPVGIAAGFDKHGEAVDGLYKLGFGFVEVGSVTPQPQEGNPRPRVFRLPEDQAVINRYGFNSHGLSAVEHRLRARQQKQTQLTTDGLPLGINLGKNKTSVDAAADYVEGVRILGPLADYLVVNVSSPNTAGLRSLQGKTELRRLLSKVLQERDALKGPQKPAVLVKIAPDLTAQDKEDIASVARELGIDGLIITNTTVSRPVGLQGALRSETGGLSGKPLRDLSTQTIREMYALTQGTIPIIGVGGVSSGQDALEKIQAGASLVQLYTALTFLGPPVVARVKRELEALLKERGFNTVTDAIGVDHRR

On to `C[C@H]1[C@H](OC(=O)CCC(=O)O)O[C@@H]2O[C@@]3(C)CC[C@H]4[C@H](C)CC[C@@H]1[C@@]24OO3` [Artesunate], for which the IC50 was in the range of 3.6 to 11 nM in [1] and 0.8 to 2.9 nM in series [2].

As to `CCN(CC)CCCC(C)Nc1ccnc2cc(Cl)ccc12` (stereo not drawn) [Chloroquine], the ED90 in series [3] turned out to be 4.3 mg/kg per day. Besides, the IC50 is 23 to 32 nM in series [1], 86 to 101 nM in series [4] and 43 to 147 nM in series [2].

`Cc1nc2nc(C(C)(F)F)nn2c(Nc2ccc(C(F)(F)F)nc2)c1F` [Compound (2), 2-(1,1-difluoroethyl)-6-fluoro-5-methyl-N-(6-(trifluoromethyl)pyridin-3-yl)-[1,2,4]triazolo[1,5-a]pyrimidin-7-amine]: in the series with P. falciparum 3D7, the EC50 (in general, the midpoint of the concentration-response curve) is 16 nM. For the same compound, the solubility (kinetic) – broadly, solubility judged after dilution from a stock solution rather than from solid – in [5] is more than 100 µg/mL. The IC50 at dog DHODH (setting [6]) worked out at 9200 nM; at human DHODH, 62000 nM; on rat DHODH, 15700 nM; at mouse DHODH it was 20000 nM; at pfDHODH (setting [7]), 23 nM.

With `Cc1cc(Nc2ccc(C(F)(F)F)nc2)n2nc(C(F)(F)F)nc2n1` [Compound (3), 5-methyl-2-(trifluoromethyl)-N-(6-(trifluoromethyl)pyridin-3-yl)-[1,2,4]triazolo[1,5-a]pyrimidin-7-amine], in the series on P. falciparum 3D7, the EC50 is 35 nM. Moreover, the kinetic solubility in series [5] worked out at 50 µg/mL (≈ 138 µM). In addition, the IC50 on dog DHODH is 39000 nM; at human DHODH, more than 100000 nM; at rat DHODH it was 8400 nM; on mouse DHODH, 33000 nM; at pfDHODH (setting [7]), 41 nM.

`CCc1nc(N)nc(N)c1-c1ccc(Cl)cc1` [Pyrimethamine]: in [3], the ED90 amounted to 0.9 mg/kg per day.

As to `Cc1cc(Nc2ccc(C(F)(F)F)nc2)n2nc(C(C)(F)F)nc2n1` [Reference 1], the “Kinetic Solubility pH6.5” value in series [5] was 6.3 μg/ml. Besides, the IC50 is 21000 nM at dog DHODH (setting [6]); 58000 nM on human DHODH; 4400 nM at rat DHODH; 74000 nM on mouse DHODH; 50 nM on pfDHODH (setting [7]).

With `Cc1cc(Nc2ccc(C(F)(F)F)cn2)n2nc(C(F)(F)F)nc2n1` [Reference 2], in the series with P. falciparum 3D7, the EC50 stood at 70 nM. In series [5], the solubility (kinetic) stood at 1.6 µg/mL (≈ 4.42 µM). The IC50 was more than 50000 nM on human DHODH and 37 nM at pfDHODH (setting [7]).

Take `Cc1cc(Nc2ccc(C(F)(F)F)cc2)n2nc(C(C)(F)F)nc2n1` [Reference 3]: the EC50 with P. falciparum 3D7 stood at 8.3 nM. In [3], this compound showed an ED90 of 26 mg/kg per day. Moreover, in series [5], the solubility (kinetic) was found to be 50 µg/mL (≈ 140 µM). Moreover, the IC50 was more than 100000 nM at dog DHODH (setting [6]); more than 100000 nM on human DHODH; 7200 nM at rat DHODH; 24000 nM at mouse DHODH; 31 nM on pfDHODH.

With `Cc1cc(Nc2ccc(S(F)(F)(F)(F)F)cc2)n2nc(C(C)(F)F)nc2n1` [Reference 4], the EC50 with P. falciparum 3D7 was determined as 5 nM. The compound also displayed an ED90 in [3] of 8.1 mg/kg per day. The solubility (kinetic) in [5] is 25 µg/mL (≈ 60.2 µM). The IC50 in series [1] (ex vivo schizont maturation, 35-56 hrs, FC27 chloroquine sensitive lab strain) is 177 nM; in series [4] (setting [8]), 190 nM; in [2] (setting [8]), 920 nM.
